In brackets after ≈: the same amount, converted by molar mass.
What follows are compounds tested against T1, CYP1A2 (Homo sapiens, UniProt P05177) (assay: Inhibition of CYP1A2 (unknown origin) assessed as residual activity at 10 uM). Details: read-out: INH.
T1 sequence (P05177 whole entry): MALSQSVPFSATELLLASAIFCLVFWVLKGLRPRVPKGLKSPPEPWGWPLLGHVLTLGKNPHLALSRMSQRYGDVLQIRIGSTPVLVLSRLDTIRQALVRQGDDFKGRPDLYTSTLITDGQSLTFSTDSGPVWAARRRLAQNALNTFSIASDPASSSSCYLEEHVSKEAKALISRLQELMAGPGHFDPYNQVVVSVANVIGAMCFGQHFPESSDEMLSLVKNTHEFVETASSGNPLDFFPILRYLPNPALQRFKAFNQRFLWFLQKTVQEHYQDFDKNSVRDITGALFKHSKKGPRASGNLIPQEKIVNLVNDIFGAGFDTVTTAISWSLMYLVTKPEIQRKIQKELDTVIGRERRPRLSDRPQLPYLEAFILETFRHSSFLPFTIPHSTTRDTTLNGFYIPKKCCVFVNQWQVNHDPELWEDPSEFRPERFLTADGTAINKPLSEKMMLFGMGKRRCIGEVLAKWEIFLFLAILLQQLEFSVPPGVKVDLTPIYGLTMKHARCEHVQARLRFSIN
Assay type: ADME
In the case of `CC(C#N)=C1CCN(c2ccc(N3C[C@H](Cn4ccnn4)OC3=O)cc2F)CC1`, the activity at 10 µM is reported as 45.7%. Compound `N#CC=C1CCN(c2ccc(N3C[C@H](Cn4ccnn4)OC3=O)cc2F)CC1` has an activity at 10 µM of 55.2%.

What follows are compounds tested against Voltage-gated inwardly rectifying potassium channel KCNH2 (Homo sapiens, UniProt Q12809) (assay: Inhibition of human hERG by automated patch clamp assay). Details: not given.
Sequence of Voltage-gated inwardly rectifying potassium channel KCNH2 (Q12809 whole entry): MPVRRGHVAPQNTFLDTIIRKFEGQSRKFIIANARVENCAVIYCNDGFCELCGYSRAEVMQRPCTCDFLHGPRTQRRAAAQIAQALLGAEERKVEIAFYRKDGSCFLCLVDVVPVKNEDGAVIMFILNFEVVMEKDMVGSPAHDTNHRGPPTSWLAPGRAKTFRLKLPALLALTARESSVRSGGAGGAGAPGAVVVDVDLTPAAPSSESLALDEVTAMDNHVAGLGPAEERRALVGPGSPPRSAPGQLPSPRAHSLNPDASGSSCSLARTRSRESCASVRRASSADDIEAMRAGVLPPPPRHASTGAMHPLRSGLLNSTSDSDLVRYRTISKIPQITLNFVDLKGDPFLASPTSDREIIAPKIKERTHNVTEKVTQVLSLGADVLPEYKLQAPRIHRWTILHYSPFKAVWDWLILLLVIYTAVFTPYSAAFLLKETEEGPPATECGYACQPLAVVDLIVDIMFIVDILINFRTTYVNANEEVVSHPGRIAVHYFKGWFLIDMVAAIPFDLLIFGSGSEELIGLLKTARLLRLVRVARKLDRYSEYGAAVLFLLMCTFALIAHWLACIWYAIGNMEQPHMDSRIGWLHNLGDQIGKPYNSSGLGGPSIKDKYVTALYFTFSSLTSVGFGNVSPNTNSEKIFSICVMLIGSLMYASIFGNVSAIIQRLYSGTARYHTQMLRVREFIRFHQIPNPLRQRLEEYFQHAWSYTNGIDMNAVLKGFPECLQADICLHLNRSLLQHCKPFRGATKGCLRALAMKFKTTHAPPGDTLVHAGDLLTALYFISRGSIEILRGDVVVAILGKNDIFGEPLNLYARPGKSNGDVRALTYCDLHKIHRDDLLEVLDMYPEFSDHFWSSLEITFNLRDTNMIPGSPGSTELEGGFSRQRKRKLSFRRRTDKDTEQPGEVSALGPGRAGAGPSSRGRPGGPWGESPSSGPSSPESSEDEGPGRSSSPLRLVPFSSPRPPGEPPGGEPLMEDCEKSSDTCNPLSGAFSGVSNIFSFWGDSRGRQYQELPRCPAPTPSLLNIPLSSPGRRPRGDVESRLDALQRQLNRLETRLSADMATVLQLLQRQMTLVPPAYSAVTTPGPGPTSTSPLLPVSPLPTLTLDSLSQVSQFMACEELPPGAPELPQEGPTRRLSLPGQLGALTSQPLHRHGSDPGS
With `CC(C#N)=C1CCN(c2ccc(N3C[C@H](Cn4ccnn4)OC3=O)cc2F)CC1` the IC50 was 213 µM. With `N#CC=C1CCN(c2ccc(N3C[C@H](Cn4ccnn4)OC3=O)cc2F)CC1` the IC50 was 49.5 µM.

These compounds were tested against CYP3A4 (Homo sapiens, UniProt P08684) (assay: Inhibition of CYP3A4 (unknown origin) assessed as residual activity at 10 uM). Details: read-out: INH.
Sequence of CYP3A4 (P08684 whole entry): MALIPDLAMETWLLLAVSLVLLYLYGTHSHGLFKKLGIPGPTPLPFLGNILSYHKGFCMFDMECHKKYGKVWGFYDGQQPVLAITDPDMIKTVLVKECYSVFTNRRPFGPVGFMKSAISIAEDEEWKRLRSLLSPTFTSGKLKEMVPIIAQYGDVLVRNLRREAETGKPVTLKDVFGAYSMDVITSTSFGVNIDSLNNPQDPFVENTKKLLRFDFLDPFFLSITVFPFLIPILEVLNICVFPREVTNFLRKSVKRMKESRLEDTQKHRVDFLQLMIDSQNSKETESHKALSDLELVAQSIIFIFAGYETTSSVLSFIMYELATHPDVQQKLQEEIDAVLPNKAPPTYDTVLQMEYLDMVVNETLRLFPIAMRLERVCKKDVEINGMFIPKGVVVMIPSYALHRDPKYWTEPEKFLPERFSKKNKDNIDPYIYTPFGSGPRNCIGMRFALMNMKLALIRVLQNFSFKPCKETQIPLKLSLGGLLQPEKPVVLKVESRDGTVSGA
Assay type: ADME
Compound `CC(C#N)=C1CCN(c2ccc(N3C[C@H](Cn4ccnn4)OC3=O)cc2F)CC1` has an activity at 10 µM of 7.45%. `N#CC=C1CCN(c2ccc(N3C[C@H](Cn4ccnn4)OC3=O)cc2F)CC1` gave an activity at 10 µM of 32%.

What follows are compounds tested against T2, MAO-B (Homo sapiens, UniProt P27338) (assay: Inhibition of human MAO-B assessed as residual activity at 10 uM). Details: read-out: INH.
T2 sequence (P27338 whole entry): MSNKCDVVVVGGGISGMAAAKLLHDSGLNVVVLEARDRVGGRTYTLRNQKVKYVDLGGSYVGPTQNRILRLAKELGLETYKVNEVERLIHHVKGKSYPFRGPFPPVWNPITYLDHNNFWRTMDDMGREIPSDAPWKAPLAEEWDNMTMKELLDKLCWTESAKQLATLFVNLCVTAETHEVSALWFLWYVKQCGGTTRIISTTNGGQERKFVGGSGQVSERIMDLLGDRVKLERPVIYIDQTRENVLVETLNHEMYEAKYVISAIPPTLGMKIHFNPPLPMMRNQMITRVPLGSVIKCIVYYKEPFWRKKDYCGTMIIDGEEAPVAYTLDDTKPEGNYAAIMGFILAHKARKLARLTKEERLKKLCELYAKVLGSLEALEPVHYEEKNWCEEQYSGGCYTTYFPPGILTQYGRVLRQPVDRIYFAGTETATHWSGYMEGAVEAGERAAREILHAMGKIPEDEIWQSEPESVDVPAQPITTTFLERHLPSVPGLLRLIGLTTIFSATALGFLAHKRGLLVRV
Work on `CC(C#N)=C1CCN(c2ccc(N3C[C@H](Cn4ccnn4)OC3=O)cc2F)CC1` yielded an activity at 10 µM of 74.8%. `N#CC=C1CCN(c2ccc(N3C[C@H](Cn4ccnn4)OC3=O)cc2F)CC1` was tested, and the activity at 10 µM was 111%.

Each compound was assayed against CYP2C9 (Homo sapiens, UniProt P11712) (assay: Inhibition of CYP2C9 (unknown origin) assessed as residual activity at 10 uM). Details: read-out: INH.
Sequence of CYP2C9 (P11712 whole entry): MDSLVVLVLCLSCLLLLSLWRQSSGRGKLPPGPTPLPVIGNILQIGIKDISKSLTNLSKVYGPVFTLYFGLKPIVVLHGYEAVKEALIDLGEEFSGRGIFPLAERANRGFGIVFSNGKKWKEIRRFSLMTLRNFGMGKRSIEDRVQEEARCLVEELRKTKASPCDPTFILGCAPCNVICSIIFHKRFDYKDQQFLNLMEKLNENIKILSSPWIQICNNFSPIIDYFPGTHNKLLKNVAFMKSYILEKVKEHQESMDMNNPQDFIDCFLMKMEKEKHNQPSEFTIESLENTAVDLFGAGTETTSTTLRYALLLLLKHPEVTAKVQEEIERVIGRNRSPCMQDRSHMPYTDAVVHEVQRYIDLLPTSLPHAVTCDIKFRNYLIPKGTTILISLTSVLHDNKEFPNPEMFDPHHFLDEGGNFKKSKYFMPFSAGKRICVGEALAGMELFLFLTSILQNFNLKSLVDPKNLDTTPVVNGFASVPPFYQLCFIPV
Assay type: ADME
Compound `CC(C#N)=C1CCN(c2ccc(N3C[C@H](Cn4ccnn4)OC3=O)cc2F)CC1` has an activity at 10 µM of 61.5%. `N#CC=C1CCN(c2ccc(N3C[C@H](Cn4ccnn4)OC3=O)cc2F)CC1` showed an activity at 10 µM of 88%.

What follows are compounds tested on Streptococcus pyogenes (assay: Antibacterial activity against Streptococcus pyogenes 308A by agar dilution method). Details: not given.
Assay type: functional
`CC(C#N)=C1CCN(c2ccc(N3C[C@H](Cn4ccnn4)OC3=O)cc2F)CC1` showed an MIC of 0.39 µg/mL (≈ 0.984 µM). `N#CC=C1CCN(c2ccc(N3C[C@H](Cn4ccnn4)OC3=O)cc2F)CC1` showed an MIC of 0.39 µg/mL (≈ 1.02 µM).

Each compound was assayed on Staphylococcus aureus (assay: Antibacterial activity against methicillin-resistant Staphylococcus aureus C463 by agar dilution method). Details: not given.
Assay type: functional
In the case of `CC(C#N)=C1CCN(c2ccc(N3C[C@H](Cn4ccnn4)OC3=O)cc2F)CC1`, the MIC is reported as 1.56 µg/mL (≈ 3.94 µM). Compound `N#CC=C1CCN(c2ccc(N3C[C@H](Cn4ccnn4)OC3=O)cc2F)CC1` has an MIC of 3.12 µg/mL (≈ 8.16 µM).

Each compound was assayed on Enterococcus faecium (assay: Antibacterial activity against vancomycin-resistant Enterococcus faecium C803 by agar dilution method). Details: not given.
Assay type: functional
`CC(C#N)=C1CCN(c2ccc(N3C[C@H](Cn4ccnn4)OC3=O)cc2F)CC1` was tested, and the MIC was 1.56 µg/mL (≈ 3.94 µM). Compound `N#CC=C1CCN(c2ccc(N3C[C@H](Cn4ccnn4)OC3=O)cc2F)CC1` has an MIC of 1.56 µg/mL (≈ 4.08 µM).

Each compound was assayed on Streptococcus agalactiae (assay: Antibacterial activity against Streptococcus agalactiae ATCC 2901 by agar dilution method). Details: not given.
Assay type: functional
`CC(C#N)=C1CCN(c2ccc(N3C[C@H](Cn4ccnn4)OC3=O)cc2F)CC1` showed an MIC of 0.19 µg/mL (≈ 0.479 µM). For `N#CC=C1CCN(c2ccc(N3C[C@H](Cn4ccnn4)OC3=O)cc2F)CC1`, the MIC was 0.78 µg/mL (≈ 2.04 µM).

These compounds were tested against CYP2D6 (Homo sapiens, UniProt P10635) (assay: Inhibition of CYP2D6 (unknown origin) assessed as residual activity at 10 uM). Details: read-out: INH.
Sequence of CYP2D6 (P10635 whole entry): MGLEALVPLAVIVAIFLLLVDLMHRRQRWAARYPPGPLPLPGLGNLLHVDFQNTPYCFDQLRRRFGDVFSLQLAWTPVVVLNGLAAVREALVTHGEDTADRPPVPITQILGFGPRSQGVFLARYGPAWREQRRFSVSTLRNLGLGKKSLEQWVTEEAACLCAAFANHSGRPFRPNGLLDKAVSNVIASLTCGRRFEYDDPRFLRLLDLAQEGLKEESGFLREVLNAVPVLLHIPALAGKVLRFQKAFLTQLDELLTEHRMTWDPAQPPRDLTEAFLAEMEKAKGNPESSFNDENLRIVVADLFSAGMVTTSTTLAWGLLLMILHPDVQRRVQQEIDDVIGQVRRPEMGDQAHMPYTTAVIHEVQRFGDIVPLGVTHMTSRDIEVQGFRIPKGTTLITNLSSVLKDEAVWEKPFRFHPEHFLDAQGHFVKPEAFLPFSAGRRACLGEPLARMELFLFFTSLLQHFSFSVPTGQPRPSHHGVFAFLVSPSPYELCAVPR
Assay type: ADME
Compound `CC(C#N)=C1CCN(c2ccc(N3C[C@H](Cn4ccnn4)OC3=O)cc2F)CC1` has an activity at 10 µM of 65.1%. With `N#CC=C1CCN(c2ccc(N3C[C@H](Cn4ccnn4)OC3=O)cc2F)CC1` the activity at 10 µM was 80.9%.

The compounds below were run on Staphylococcus (assay: Antibacterial activity against methicillin-resistant coagulase negative Staphylococcus by agar dilution method). Details: not given.
Assay type: functional
With `CC(C#N)=C1CCN(c2ccc(N3C[C@H](Cn4ccnn4)OC3=O)cc2F)CC1` the MIC was 1.56 µg/mL (≈ 3.94 µM). `N#CC=C1CCN(c2ccc(N3C[C@H](Cn4ccnn4)OC3=O)cc2F)CC1` showed an MIC of 3.12 µg/mL (≈ 8.16 µM).

What follows are compounds tested on Enterococcus faecalis (assay: Antibacterial activity against vancomycin-resistant Enterococcus faecalis C474 by agar dilution method). Details: not given.
Assay type: functional
For `CC(C#N)=C1CCN(c2ccc(N3C[C@H](Cn4ccnn4)OC3=O)cc2F)CC1`, the MIC was 1.56 µg/mL (≈ 3.94 µM). In the case of `N#CC=C1CCN(c2ccc(N3C[C@H](Cn4ccnn4)OC3=O)cc2F)CC1`, the MIC is reported as 3.12 µg/mL (≈ 8.16 µM).

Each compound was assayed against T3, MAO-A (Homo sapiens, UniProt P21397) (assay: Inhibition of human MAO-A assessed as residual activity at 10 uM). Details: read-out: INH.
T3 sequence (P21397 whole entry): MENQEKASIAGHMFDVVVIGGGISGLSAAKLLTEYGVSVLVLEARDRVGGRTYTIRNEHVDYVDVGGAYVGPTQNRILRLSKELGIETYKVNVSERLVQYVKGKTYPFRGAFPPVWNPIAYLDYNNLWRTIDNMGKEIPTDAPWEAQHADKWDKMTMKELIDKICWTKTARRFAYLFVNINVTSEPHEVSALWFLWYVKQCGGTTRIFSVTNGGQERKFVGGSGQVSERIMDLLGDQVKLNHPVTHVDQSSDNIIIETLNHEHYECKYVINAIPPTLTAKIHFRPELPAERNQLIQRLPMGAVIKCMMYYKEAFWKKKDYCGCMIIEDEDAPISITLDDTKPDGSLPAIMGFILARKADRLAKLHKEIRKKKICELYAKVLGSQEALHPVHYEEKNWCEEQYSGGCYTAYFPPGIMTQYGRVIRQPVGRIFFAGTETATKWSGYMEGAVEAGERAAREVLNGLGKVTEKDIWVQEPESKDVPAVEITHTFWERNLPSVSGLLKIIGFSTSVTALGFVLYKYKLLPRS
Work on `CC(C#N)=C1CCN(c2ccc(N3C[C@H](Cn4ccnn4)OC3=O)cc2F)CC1` yielded an activity at 10 µM of 34.8%. With `N#CC=C1CCN(c2ccc(N3C[C@H](Cn4ccnn4)OC3=O)cc2F)CC1` the activity at 10 µM was 3.54%.

The compounds below were run on Haemophilus influenzae (assay: Antibacterial activity against betalactamase positive Haemophilus influenzae by agar dilution method). Details: not given.
Assay type: functional
`CC(C#N)=C1CCN(c2ccc(N3C[C@H](Cn4ccnn4)OC3=O)cc2F)CC1` gave an MIC of 0.39 µg/mL (≈ 0.984 µM). `N#CC=C1CCN(c2ccc(N3C[C@H](Cn4ccnn4)OC3=O)cc2F)CC1` gave an MIC of 0.78 µg/mL (≈ 2.04 µM).

Each compound was assayed on Streptococcus pneumoniae (assay: Antibacterial activity against penicillin-resistant Streptococcus pneumoniae C402 by agar dilution method). Details: not given.
Assay type: functional
Compound `CC(C#N)=C1CCN(c2ccc(N3C[C@H](Cn4ccnn4)OC3=O)cc2F)CC1` has an MIC of 0.19 µg/mL (≈ 0.479 µM). Compound `N#CC=C1CCN(c2ccc(N3C[C@H](Cn4ccnn4)OC3=O)cc2F)CC1` has an MIC of 0.39 µg/mL (≈ 1.02 µM).

From ChEMBL document CHEMBL2321764, “Synthesis and antibacterial activities of new piperidine substituted (5R)-[1,2,3]triazolylmethyl and (5R)-[(4-F-[1,2,3]triazolyl)methyl] oxazolidinones” (Bioorg Med Chem Lett, 2013)
